The values that follow come from ChEMBL document CHEMBL3351333, “Structural analysis of a novel small molecule ligand bound to the CXCL12 chemokine” (J Med Chem, 2014).

As a reminder, the inhibition is the percentage by which the read-out fell short of the control.

This assay concerns the target Stromal cell-derived factor 1 (Homo sapiens) (UniProt P48061). Kind of assay: Binding affinity to CXCL12 in human THP1 cells assessed as inhibition of CXCL12-induced cell migration at 25 uM incubated for 2 hrs by flow cytometry based chemotaxis assay. Particulars: THP-1. A general note: In flow cytometry, cells or beads pass a laser one at a time.

Stromal cell-derived factor 1 (Homo sapiens), sequence (P48061 whole entry): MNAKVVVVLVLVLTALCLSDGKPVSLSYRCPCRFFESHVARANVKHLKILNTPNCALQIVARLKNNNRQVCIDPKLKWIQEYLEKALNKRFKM

On to `O=C(Nc1ccccc1)Nc1ccc(-c2nnn[nH]2)cc1`, for which the inhibition is 20%.

Consider `O=C(NCCc1ccccc1)Nc1ccc(-c2nnn[nH]2)cc1`, for which the inhibition was 40%.
